Earlier results as cited in patent US6485736B1, “Variable release microcapsules” (priority 2000, dated 2002).

Conditions: water at 25° C.

In the case of `II`, the solubility is given as 0.335 g in 1 dm^3 of water.
